Measured values taken from PubChem BioAssay AID1963832 (Molecular Pharmacology Branch, DTP, NCI, 2024).

Tested on: 885724-159-R-J1-PDC complex spheroid viability
Assay: Anticancer human tumor 885724-159-R-J1-PDC patient-derived pancreatic adenocarcinoma cell line growth inhibition [POLQ]
Details: for IC50: curve of first compound; for viability, T/C: stronger effect = lower value
Description: Multicellular complex tumor spheroid response to Polymerase (POL) inhibitors (novobiocin, ART-558, RP6685) in combination with a variety of drugs and investigational agents in selected tumor cell lines
The POL inhibitors (novobiocin, ART-558, and RP6685) were evaluated both individually and in combination with standard of care and investigational anticancer small molecules within a complex spheroid model of solid tumors. . Complex spheroids include a stromal component modeled by human endothelial cells (HUVEC) and fibroblasts modeled by human mesenchymal stem cells (MSCs). The concentration ranges selected for each drug and investigational agent were based upon clinically achievable concentrations if the clinical Cmax of the agent was known.
Compounds. The drugs and investigational agents: novobiocin (NSC847541), ART-558 (NSC835418), RP-6685 (NSC848927), peposertib (NSC802822), ceralasertib (NSC780249), elimusertib (NSC800525), camonsertib (NSC841442), AZD-1390 (NSC803789), olaparib (NSC753686), talazoparib (NSC767125), rucaparib (NSC756644), sotorasib (NSC818433), MRTX-1133 (NSC836407), SN-38 (NSC673596), topotecan (NSC609699), epotoside (NSC141540), doxorubicin (NSC123127), gemcitabine (NSC613327), 5-fluorouracil (NSC19893), paclitaxel (NSC125973), vemurafenib (NSC761431), MSA-2 (NSC828583), SN-011 (NSC837082), adavosertib (NSC754352), prexasertib (NSC758257), carboplatin (NSC241240) and oxaliplatin (NSC266046), were obtained from the National Cancer Institute (NCI) Developmental Therapeutics Program Chemical Repository (21). The FDA-approved anticancer drug set is available from the Developmental Therapeutics Program at https://dtp.cancer.gov/organization/dscb/obtaining/. […] The stock solutions were prepared in dimethyl sulfoxide (DMSO, Sigma-Aldrich, St. Louis, MO, cat. D2650), except for the platinum compounds which were prepared in saline (Quality Biological, Gaithersburg, MD, cat. 114-055-101), at 800-fold the tested concentration and stored at -70 degrees C prior to their use. All drugs and investigational agents were tested over a range starting from a high concentration at or near the clinical Cmax and decreasing in half-log increments. If the clinical Cmax for an agent had not been determined, the highest concentration tested was 10 microM, except for SN-38, which was tested at a high concentration of 1 microM.
Cell Culture. All cells were maintained in an incubator at 37 degrees C and 5% CO2 with 95% humidity. The PDC lines were cultured according to standard operating procedures established by the NCI PDMR (https://pdmr.cancer.gov). Table 3 of the manuscript, lists the cell lines along with the number of the three cell types plated to form the mct-spheroids and media for tumor cell growth. After thawing, all PDC lines, except 997537-175-T-J1-PDC and 415267-285-R-J2-PDC, were cultured in Matrigel-coated flasks prepared with a working solution of 1X Ham's F-12 nutrient mix, without supplementation (Thermo Fisher Scientific, cat. 11765054), 100 U/mL penicillin-streptomycin (Thermo Fisher Scientific, cat. 15140122), and 2.5% Matrigel (Corning Inc., Corning, NY, cat. 354248) for the first three passages. The two PDC lines 997537-175-T-J1-PDC and 415267-285-R-J2-PDC were cultured on uncoated flasks. The 857933-349-R-J2-PDC line was cultured in 6C/Colon 1B media containing advanced DMEM/F-12 (Thermo Fisher Scientific, cat. 12634028), 10 mM HEPES (Thermo Fisher Scientific, cat. 15630080), 1X GlutaMAX supplement (Thermo Fisher Scientific, cat. 35050061), 0.1 mg/mL primocin (InvivoGen, San Diego, CA, cat. ant-pm-2), 10% defined fetal bovine serum, heat inactivated (HyClone Laboratories Inc., Logan, UT, cat. SH30070.03HI), 50% L-WRN conditioned media (ATCC, cat. CRL-3276), 1.25 mM N-Acetyl-L-cysteine (Sigma-Aldrich, cat. A9165), 10 mM nicotinamide (Sigma-Aldrich, cat. N0636), 1X B-27 supplement (Thermo Fisher Scientific, cat. 17504044), 1X N-2 supplement (Thermo Fisher Scientific, cat. […]

[1] = second compound 0.0316 µM, first compound 0.0316 µM
[2] = second compound 0.0316 µM, first compound 0.1 µM
[3] = second compound 0.0316 µM, first compound 0.316 µM
[4] = second compound 0.0316 µM, first compound 1 µM
[5] = second compound 0.0316 µM, first compound 3.16 µM
[6] = second compound 0.0316 µM, first compound 10 µM
[7] = second compound 0.1 µM, first compound 0.0316 µM
[8] = second compound 0.1 µM, first compound 0.1 µM
[9] = second compound 0.1 µM, first compound 0.316 µM
[10] = second compound 0.1 µM, first compound 1 µM
[11] = second compound 0.1 µM, first compound 3.16 µM
[12] = second compound 0.1 µM, first compound 10 µM
[13] = second compound 0.316 µM, first compound 0.0316 µM
[14] = second compound 0.316 µM, first compound 0.1 µM
[15] = second compound 0.316 µM, first compound 0.316 µM
[16] = second compound 0.316 µM, first compound 1 µM
[17] = second compound 0.316 µM, first compound 3.16 µM
[18] = second compound 0.316 µM, first compound 10 µM
[19] = second compound 1 µM, first compound 0.0316 µM
[20] = second compound 1 µM, first compound 0.1 µM
[21] = second compound 1 µM, first compound 0.316 µM
[22] = second compound 1 µM, first compound 1 µM
[23] = second compound 1 µM, first compound 3.16 µM
[24] = second compound 1 µM, first compound 10 µM
[25] = second compound 3.16 µM, first compound 0.0316 µM
[26] = second compound 3.16 µM, first compound 0.1 µM
[27] = second compound 3.16 µM, first compound 0.316 µM
[28] = second compound 3.16 µM, first compound 1 µM
[29] = second compound 3.16 µM, first compound 3.16 µM
[30] = second compound 3.16 µM, first compound 10 µM
[31] = second compound 10 µM, first compound 0.0316 µM
[32] = second compound 10 µM, first compound 0.1 µM
[33] = second compound 10 µM, first compound 0.316 µM
[34] = second compound 10 µM, first compound 1 µM
[35] = second compound 10 µM, first compound 3.16 µM
[36] = second compound 10 µM, first compound 10 µM
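Note: spheroids exposed to compounds for 7 days.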

In the case of `Nc1ccn(C2OC(CO)C(O)C2(F)F)c(=O)n1` (centres undefined) + Nc1ccc(C#CCN(C(=O)Cc2ncc(C(F)(F)F)cc2C(F)(F)F)c2ccc(F)cc2)nn1, the IC50 (second compound 0.0316 µM) is reported as 1.04 µM, the IC50 (second compound 0.1 µM) is reported as 1.88 µM and the IC50 (second compound 0.316 µM) is reported as 2.27 µM. The IC50 (second compound 1 µM) was 0.886 µM, the IC50 (second compound 3.16 µM) was over 10 µM and the IC50 (second compound 10 µM) was over 10 µM. For the same molecule, the viability, T/C [1] was 65.5%, the viability, T/C [2] was 57.2% and the viability, T/C [3] was 47%. It also gave a viability, T/C [4] of 55.1%, a viability, T/C [5] of 54.8% and a viability, T/C [6] of 42.1%. The viability, T/C [7] was 70.2%, the viability, T/C [8] was 60.2% and the viability, T/C [9] was 54.3%. It also gave a viability, T/C [10] of 55.2%, a viability, T/C [11] of 49.6% and a viability, T/C [12] of 44.2%. For the same molecule, the viability, T/C [13] was 72%, the viability, T/C [14] was 62.9% and the viability, T/C [15] was 56.5%. For the same molecule, the viability, T/C [16] was 53.2%, the viability, T/C [17] was 49.1% and the viability, T/C [18] was 46.3%. The viability, T/C [19] was 72.4%, the viability, T/C [20] was 55.4% and the viability, T/C [21] was 54.2%. For the same molecule, the viability, T/C [22] was 51.2%, the viability, T/C [23] was 49% and the viability, T/C [24] was 47.1%. It also gave a viability, T/C [25] of 77.5%, a viability, T/C [26] of 60.9% and a viability, T/C [27] of 55.7%. For the same molecule, the viability, T/C [28] was 50.8%, the viability, T/C [29] was 55.8% and the viability, T/C [30] was 46.4%. The viability, T/C [31] was 96%, the viability, T/C [32] was 72% and the viability, T/C [33] was 69.3%. The viability, T/C [34] was 59.2%, the viability, T/C [35] was 54.9% and the viability, T/C [36] was 55.2%.

`O=c1[nH]cc(F)c(=O)[nH]1` + Nc1ccc(C#CCN(C(=O)Cc2ncc(C(F)(F)F)cc2C(F)(F)F)c2ccc(F)cc2)nn1 was tested, and the IC50 (second compound 0.0316 µM) was over 10 µM, the IC50 (second compound 0.1 µM) was over 10 µM and the IC50 (second compound 0.316 µM) was over 10 µM. It also gave an IC50 (second compound 1 µM) of over 10 µM, an IC50 (second compound 3.16 µM) of over 10 µM and an IC50 (second compound 10 µM) of over 10 µM. The viability, T/C [1] was 88.7%, the viability, T/C [2] was 99.5% and the viability, T/C [3] was 93.2%. It also gave a viability, T/C [4] of 101%, a viability, T/C [5] of 100% and a viability, T/C [6] of 75.2%. The viability, T/C [7] was 94%, the viability, T/C [8] was 100% and the viability, T/C [9] was 92.1%. The viability, T/C [10] was 96%, the viability, T/C [11] was 87% and the viability, T/C [12] was 74.9%. It also gave a viability, T/C [13] of 100%, a viability, T/C [14] of 98.2% and a viability, T/C [15] of 92.2%. It also gave a viability, T/C [16] of 90.9%, a viability, T/C [17] of 89.4% and a viability, T/C [18] of 82.7%. The viability, T/C [19] was 96.9%, the viability, T/C [20] was 88.8% and the viability, T/C [21] was 96%. The viability, T/C [22] was 93.2%, the viability, T/C [23] was 81.3% and the viability, T/C [24] was 71.7%. It also gave a viability, T/C [25] of 97.1%, a viability, T/C [26] of 86.4% and a viability, T/C [27] of 86.9%. It also gave a viability, T/C [28] of 92.8%, a viability, T/C [29] of 97.5% and a viability, T/C [30] of 71.6%. For the same molecule, the viability, T/C [31] was 105%, the viability, T/C [32] was 109% and the viability, T/C [33] was 94%. For the same molecule, the viability, T/C [34] was 86.5%, the viability, T/C [35] was 92.8% and the viability, T/C [36] was 81.9%.
